Assay results taken from US12421187B2, “Dihydrofolate synthase (DHFS) inhibiting agents and methods of making and using same” (Washington Univeristy, priority 2022, dated 2025).
Values after ≈ are worked out from the molar mass of the structure shown. “Also recorded” adds a separate entry of the source. Like-named read-outs stand apart in the source and are kept apart here.

Key:
[1] = molecular target: T1, dihydropteroate synthase (DHPS) (Escherichia coli, UniProt P0AC13); test: HPPK/DHPS/DHFR steady state kinetics with PABA or 3-HβL as DHPS substrate; assay type: biochemical, E. coli
T1 construct: made in house; host or cells: E. coli BL21 (given for HPPK; the other enzymes 'in the same manner')
Method: (§1) DHFR would only reduce dihydropteroic acid, not 6-hydroxymethyl-7,8-dihydropterin, and as long as the DHFR rate was not slower than the DHPS rate, then the rate limiting step of DHPS is represented by the decrease in absorbance at 340 nm overtime.
(§2) HPPK, DHPS, DHFR and all their associated cosubstrates (ATP, PABA, NADPH) were combined in suitable buffer conditions (pH=7.5) and the optical absorbance at 340 nm was measured over time (see e.g., FIG. 21A).
HPPK/DHPS/DHFR Steady State Kinetics
Stock solutions of all reagents were made using 100 mM Tris buffer (pH=7.5) and stored in fractions in a −80° C. freezer until use (see e.g., TABLE 5).
An assay stock solution containing everything except the enzymes was made and 142.5 μL was distributed to each well (6 total) on a quartz 96-well plate that had been flushed with argon. To each of the first three wells was then added 7.5 μL of the enzyme solution containing HPPK/DHPS/DHFR, and to each of the last 3 wells was added 7.5 μL of 100 mM Tris-buffer. The 96-well plate was put into a UV/Vis plate reader and incubated at 37° C. while the optical absorbance at nm was read every 10 s for 1 h. The apparent reaction rate for absorbance decrease was measured from between 0-5 min. Each well was combined with their triplicate partners and the solutions were centrifuge filtered through a molecular weight cutoff (MWCO) to remove any enzymes. The solutions then run on an LCMS with single ion monitoring methods to detect the various oxidation states of products.
HPPK/DHPS/DHFR Steady State Kinetics with a 3-HG3L as a Substrate Stock solutions of all reagents were made using 100 mM Tris buffer (pH=7.5) and stored in fractions in a −80° C. freezer until use (see e.g., TABLE 7).
An assay stock solution containing everything except the enzymes was made and 142.5 μL was distributed to each well (6 total) on a quartz 96-well plate that had been flushed with argon. To each of the first three wells was then added 7.5 μL of the enzyme solution containing HPPK/DHPS/DHFR, and to each of the last 3 wells was added 7.5 μL of 100 mM Tris-buffer. The 96-well plate was put into a UV/Vis plate reader and incubated at 37° C. while the optical absorbance at nm was read every 10 s for 1 h. The apparent reaction rate for absorbance decrease was measured from between 0-5 min. Each well was combined with 1-0 their triplicate partners and the solutions were centrifuge filtered through a molecular weight cutoff (MWCO) to remove any enzymes. The solutions then run on an LCMS with single ion monitoring methods to detect the various oxidation states of products.

[2] = molecular target: T1, dihydropteroate synthase (DHPS); test: HPPK/DHPS/DHFR steady state kinetics inhibition assay (NADPH consumption, absorbance at 340 nm); assay type: biochemical, E. coli
Method: as §1, §2
HPPK/DHPS/DHFR Steady State Kinetics Inhibition
Stock solutions of all reagents were made using 100 mM Tris-buffer (pH=7.5) and stored in fractions in a −80° C. freezer until use (see e.g., TABLE 6).
An assay stock solution containing everything except the HPPK/DHPS/DHFR solution and the Tris buffer+Inhibitor was made and 88.5 μL was distributed to each well (in triplicate) of a quartz 96-well plate to be used. […] 7.5 μL of the enzyme solution containing HPPK/DHPS/DHFR was added to each well and the plate was put into a UV/Vis plate reader and incubated at 37° C. while the optical absorbance at 340 nm was read every 10 s for 1 h. The apparent reaction 1-9 rate for absorbance decrease was measured from between 0-5 min.

E. coli ATC 25922 = test: Agar diffusion antibacterial susceptibility assay; assay type: cell-based; settings: for zone of inhibition at 3520 µg/mL / zone of inhibition at 15000 µg/mL: Escherichia coli; for zone of inhibition at 15000 µg/mL: 15 mg/mL in DMSO
Method: Inhibitor 4.10 was also used alongside sulfamethoxazole and trimethoprim and in combination with sulfamethoxazole and trimethoprim respectively, in an agar diffusion antibacterial susceptibility assay (see e.g., FIG. 41 and TABLE 11).
An overnight culture of E. coli ATC 25922 was grown in 5 mL of LB broth. 22 g of Mueller Hinton II broth powder and 15 g of agar were dissolved in 1 L of dd-H2O and autoclaved. The MH II agar broth was cooled to 47° C. and 35 mL of MH II agar broth was inoculated with 100 μL of OD600=0.1 E. coli from the overnight culture. The inoculated agar was plated and once cool enough, 10 wells were cut out using a vacuum. Each well was filled with 50 μL DMSO solutions as below and the plates were left in an incubator at 37° C. for 18 h. The zones of inhibition were measured for each well.

E. coli = test: Whole cell antibacterial susceptibility test, bacterial growth curves in 96-well plate; assay type: cell-based
Method: Bacterial growth curves were determined for E. coli using two compounds—inhibitor 4.10 and trimethoprim (positive control). A 96-well plate format was used to achieve serial dilution of the test compounds and included a DMSO control to simulate the concentration of DMSO required to solubilize the test compounds in the growth medium (not shown).

[3] = molecular target: T2, dihydrofolate synthetase (DHFS) (Escherichia coli, UniProt P08192); test: DHFS steady state kinetics inhibition assay (PK/LDH coupled, absorbance at 340 nm, LCMS of product); assay type: biochemical, E. coli; settings: for DHFS product detected by LCMS of the reaction mixtures: higher inhibitor concentrations, FIG. 38A-38B
T2 construct: made in house; host or cells: E. coli BL21 (given for HPPK; the other enzymes 'in the same manner')
Source text: With a suitable DHFS substrate in hand (THFA), conditions to measure the rate of DHFS action were investigated. […] Given none of the substrates or cofactors of DHFS (see e.g., FIG. 19) would be suitable for absorbance change detection, a coupled enzyme reaction with pyruvate kinase/lactate dehydrogenase (PK/LDH) was chosen. In the presence of ADP (in this case produced by DHFS), PK would convert phosphoenolpyruvate (PEP) to pyruvate, reforming ATP in the process (see e.g., FIG. 20A). The pyruvate would then be reduced by LDH in a NADH dependent manner (see e.g., FIG. 20B). The oxidation of NADH to NAD^+ would cause a decrease in absorbance at 340 nm, which can be measured as a rate of DHFS activity as long as the PK/LDH process was not the rate limiting step of the pathway from THFA to NAD^+.
THFA and its associated cofactors (L-Glu, ATP) were dissolved in degassed buffer solution (pH=7.5) to reconstitute DHFS activity with coupling to PK/LDH activity in the presence of excess cosubstrates (PEP, NADH) (see e.g., FIG. 24A). The optical absorbance at 340 nm was measured over time and a steady-state approximation of DHFS rate (7.18 E-5 abs/s) was determined (see e.g., FIG. 24B). Once the reaction had progressed for 20 minutes, 1 M HCl was added to quench the reaction and KCl+MeOH was added to agglutinate the protein and solubilize the pterin-containing metabolites. The vials were heated for 1 h at 70° C. and centrifuged to remove precipitated enzymes. The supernatant solution was spiked with a fixed concentration of Fmoc-alanine as an internal standard for LCMS analysis.
DHFS Steady State Kinetics Inhibition Assay
Stock solutions of all reagents were made using 100 mM Tris-buffer (pH=7.5) an stored in fractions in a −80° C. freezer until use. 1500 μL of a stock solution containing everything (in appropriate amounts to maintain the final concentration calculations for 150 total μL well volume) in the table above except the DHFS and the Tris Buffer+inhibitor was made. Solutions of the Tris Buffer+inhibitor were made so as to achieve final inhibitor concentrations as below. The final concentrations of inhibitor can be adjusted as necessary.
Each necessary well of a quartz 96-well plate was flushed with argon then filled (in triplicate) with 69.75 μL of stock solution and 75.75 μL of Tris Buffer+Inhibitor solution. The quartz plate was incubated at 37° C. for 10 minutes then 4.5 μL of DHFS stock solution was quickly added to each well except well 6, to which 4.5 μL of Tris-buffer was added. The quartz plate was put in a plate reader at 37° C. and the optical absorbance at 340 nm was read every 10 seconds for 20 min. The apparent reaction rate for absorbance decrease was measured from between 0-5 min. Each well was combined with their triplicate partners and the solutions were centrifuge filtered through a molecular weight cutoff (MWCO) to remove any enzymes. The solutions were spiked with enough Fmoc-ala to bring the final concentration to 50 μM (moc-ala then run on an LCMS with single ion monitoring methods to detect the various oxidation states of THEA and Glu-THFA.
An alternative method is as follows: After the 20-minute optical absorbance reading, the triplicate solutions were combined then diluted with 200 μL MeOH and an amount of KCl in H2O to bring the final concentration of KCl to 20 mM. The solutions were then incubated at 70° C. for 1 h. […]

DHFS = molecular target: T3, DHFS (Escherichia coli, UniProt P08192); test: Protein mass spectrometry of DHFS incubated with inhibitor (covalent adduct search); parameters: species or system E. coli; settings: 0, 40, 400 μM inhibitor, 20 μM DHFS, 37° C., 1 hour
T3 construct: made in house; host or cells: E. coli BL21 (given for HPPK; the other enzymes 'in the same manner')
Source text: If DHFS is indeed phosphorylating the 3-hydroxyl group of the 3-HβL warhead, then why was it not detected by LCMS analysis? The possibility was considered that the higher concentrations of compound 4.10 resulting in 100% DHFS inhibition might be consistent with covalent modification of the enzyme by the inhibitor. This could happen by a variety of different mechanisms including the canonical β-lactam suicide inhibition mechanism through acylation of nucleophilic amino acid side chains. However, there is a potentially novel mechanism at play when considering the reactivity of an activated benzylic position of para-aniline derivatives. The presence of a leaving group at the benzylic position of para-anilines results in the formation of reactive quinone-imine-methide species. If the 3-hydroxy group of inhibitor 4.10 is phosphorylated in the DHFS active site, it could serve as a leaving group leading to spontaneous formation of a quinone-imine-methide that might react with nearby amino acid side chains. This transformation could also take place within the mass spec, making detection of the phosphorylated inhibitor impossible (see e.g., FIG. 39). […] The LCMS samples were also analyzed for the presence of a reaction product between the 3-HβL and L-Glu, but no masses which could match this description were found. […]

[4] = ATC25922, 3.52 mg/mL in DMSO, 50 μL per well, 37° C., 18 h, read-out: Zone of Inhibition
[5] = ATC25922, 50 μL per well, 37° C., 18 h

T1 sequence (P0AC13 whole entry): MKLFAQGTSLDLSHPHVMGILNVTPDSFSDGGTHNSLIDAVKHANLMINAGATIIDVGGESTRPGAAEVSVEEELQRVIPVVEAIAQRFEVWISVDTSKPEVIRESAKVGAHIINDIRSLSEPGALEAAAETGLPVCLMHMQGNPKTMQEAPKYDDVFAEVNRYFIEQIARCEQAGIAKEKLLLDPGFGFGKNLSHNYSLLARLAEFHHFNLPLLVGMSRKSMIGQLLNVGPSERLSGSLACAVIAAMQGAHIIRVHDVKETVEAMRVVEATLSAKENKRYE
T2 sequence (P08192 whole entry): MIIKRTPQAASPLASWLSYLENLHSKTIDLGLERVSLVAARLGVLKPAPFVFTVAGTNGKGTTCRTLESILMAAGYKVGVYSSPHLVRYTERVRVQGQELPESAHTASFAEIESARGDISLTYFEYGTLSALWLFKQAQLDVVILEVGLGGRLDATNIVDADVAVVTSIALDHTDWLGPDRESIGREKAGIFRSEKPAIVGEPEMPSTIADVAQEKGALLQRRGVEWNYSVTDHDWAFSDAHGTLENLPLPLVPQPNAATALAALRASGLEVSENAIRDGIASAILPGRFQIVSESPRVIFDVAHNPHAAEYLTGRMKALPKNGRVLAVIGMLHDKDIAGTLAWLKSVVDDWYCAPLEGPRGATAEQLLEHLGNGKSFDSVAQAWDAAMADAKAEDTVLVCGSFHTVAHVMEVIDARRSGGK
T3 sequence (P08192 whole entry): as above

Nc1ccc(C(=O)O)cc1 [PABA, p-amino-benzoic acid, reference compound]
Substrate of DHPS, rate as substrate (in words) [1]: faster

Nc1ccc(C2(O)CNC2=O)cc1 (stereo not shown) [Compound 2.44, 3-(4-aminophenyl)-3-hydroxyazetidin-2-one]
Inhibition of DHPS (in words) [2]: not an inhibitor of DHPS | Substrate of DHPS, rate as substrate (in words) [1]: substrate of DHPS | Substrate of DHPS, rate as substrate (in words) ([1]; listed as 3-(para-NH2-phenyl)-3-HβL): substrate | Substrate of DHPS, rate as substrate (in words) ([1]; listed as BVD-3-7): slower

COc1cc(Cc2cnc(N)nc2N)cc(OC)c1OC [trimethoprim]
Bacterial growth inhibition in agar diffusion (in words) (E. coli ATC 25922; E. coli): clear zones of bacterial growth inhibition | zone of inhibition at 3520 µg/mL (E. coli ATC 25922; [4]): 39.6 mm | zone of inhibition at 15000 µg/mL (E. coli ATC 25922; [5]): 45.3 mm | MIC (E. coli; Escherichia coli, read-out: MIC (minimum inhibitory concentration)): 2 µM (≈ 0.581 µg/mL)

NCC(O)(C(=O)O)c1ccc(NCc2cnc3nc(N)nc(N)c3n2)cc1 (stereo not shown) [Compound 4.12, 3-amino-2-(4-(((2,4-diaminopteridin-6-yl)methyl)amino)phenyl)-2-hydroxypropanoic acid]
DHFS product detected by LCMS of the reaction mixtures [3]: still showed some product

Nc1ncc(CNc2ccc(C3(O)CNC3=O)cc2)c(N)n1 (stereo not shown) [Compound 4.6, 3-(4-(((2,4-diaminopyrimidin-5-yl)methyl)amino)phenyl)-3-hydroxyazetidin-2-one]
Dose-dependent inhibition of DHFS (in words) [3]: no apparent dose dependent inhibition of DHFS

Nc1nc(N)c2nc(CNc3ccc(C4(O)CNC4=O)cc3)cnc2n1 (stereo not shown) [Compound 4.10, 3-(4-(((2,4-diaminopteridin-6-yl)methyl)amino)phenyl)-3-hydroxyazetidin-2-one]
Bacterial growth inhibition in agar diffusion (in words) (E. coli ATC 25922; E. coli): no bacterial growth inhibition was observed; also recorded: no apparent effect on E. coli growth | Synergistic effect in combination with sulfamethoxazole or trimethoprim (in words) (E. coli ATC 25922; E. coli): No apparent synergistic effect | zone of inhibition at 3520 µg/mL (E. coli ATC 25922; ATC25922, 18 h): 0 mm | Dose-dependent inhibition of DHFS (in words) [3]: dose-dependent inhibitory response | DHFS rate inhibition ([3]; at higher (double digit micromolar) concentrations): ~100% | DHFS product detected by LCMS of the reaction mixtures [3]: no product detected | 3-HβL-DHFS covalent adducts by protein mass spectrometry (in words) (DHFS): no apparent peaks corresponding to DHFS+334 mass units; also recorded: no 3-HβL—DHFS adducts formed | Inhibition of bacterial growth (in words) (E. coli; serial dilution, compared with DMSO control): No significant inhibition of bacterial growth

Cc1cc(NS(=O)(=O)c2ccc(N)cc2)no1 [sulfamethoxazole]
Bacterial growth inhibition in agar diffusion (in words) (E. coli ATC 25922; E. coli): clear zones of bacterial growth inhibition | zone of inhibition at 3520 µg/mL (E. coli ATC 25922; [4]): 23.2 mm | zone of inhibition at 15000 µg/mL (E. coli ATC 25922; [5]): 25.9 mm
